From patent publication US9156811B2 (priority 2008, dated 2015)
Structures can show the parent of a compound that is named as a salt.

Test system: Trypanosome (T. brucei brucei)
Assay: In-vitro antitrypanosomal efficacy assay (cell growth, resazurin)
Type: cell-based
Settings: not given

`Cc1nn(C)c(C)c1N(C(F)F)[S+](=O)([O-])c1c(Cl)cc(CCCC2CCNCC2)cc1Cl` [DDD100096, 2,6-Dichloro-N-(difluoromethyl)-4-(3-(piperidin-4-yl)propyl)-N-(1,3,5-trimethyl-4H-pyrazol-4-yl)benzenesulfonamide hydrochloride salt] was tested. Which “ED50 (μM) T. brucei” value did it give?
Its value is 0.003 µM.

Same assay, conditions: T. brucei brucei, blood stream form, variant 221

For `Cc1nn(C)c(C)c1N(C(F)F)[S+](=O)([O-])c1ccc(-c2cccc(C3CCNCC3)c2)cc1` [DDD100891], which “ED50 (μM) T. brucei” value is on record?
Its value is 0.129 µM.

Which “ED50 (μM) T. brucei” value does the source give for `Cc1nn(C)c(C)c1N(CC(F)(F)F)[S+](=O)([O-])c1c(Cl)cc(CCCOC2CCN(C)CC2)cc1Cl` [DDD100803] here?
Its value is 0.008 µM.

Which “ED50 (μM) T. brucei” value does the source give for `Cc1nn(C)c(C)c1N(C)[S+](=O)([O-])c1ccc(CCCCCCCN(C)C)cc1` [DDD99825] here?
Its value is 0.054 µM.

With `Cc1nn(C)c(C)c1N(CC(F)F)[S+](=O)([O-])c1c(Cl)cc(CCCN2CCCNCC2)cc1Cl` [DDD100142] as the compound, how does the “ED50 (μM) T. brucei” value read?
The value was 0.014 µM.

For `Cc1nn(C)c(C)c1N(CC(F)(F)F)[S+](=O)([O-])c1c(Cl)cc(CCCCC2CCN(C)CC2)cc1Cl` [DDD100165], which “ED50 (μM) T. brucei” value is on record?
The value was 0.020 µM.

With `Cc1nn(C)c(C)c1N(CC(F)F)[S+](=O)([O-])c1c(Cl)cc(CCCOC2CCN(C)CC2)cc1Cl` [DDD100161] as the compound, how does the “ED50 (μM) T. brucei” value read?
Its value is 0.006 µM.

Same assay, conditions: T. brucei cell growth

For `Cc1nn(C)c(C)c1N[S+](=O)([O-])c1ccc(C#CCN2CCN(C)CC2)cc1` [DDD87999, 4-[3-(4-Methyl-piperazin-1-yl)-prop-1-ynyl]-N-(1,3,5-trimethyl-1H-pyrazol-4-yl)-benzenesulfonamide], which “ED50 (μM) T. brucei” value is on record?
The value was greater than 1 µM.

For `Cc1nn(C)c(C)c1N[S+](=O)([O-])c1cc(Cl)cc(Cl)c1O` [DDD73229], which “ED50 (μM) T. brucei” value is on record?
The value was greater than 1 µM.

Which “ED50 (μM) T. brucei” value does the source give for `Cc1c(N[S+](=O)([O-])c2ccc(-c3cccc(C4CCNCC4)c3)cc2)c(CC(C)C)nn1C` [DDD099757] here?
Its value is 0.061 µM.

For `Cc1nn(C)c(C)c1N(Cc1ccccc1)[S+](=O)([O-])c1c(Cl)cc(Br)cc1Cl` [DDD85601], which “ED50 (μM) T. brucei” value is on record?
The value was greater than 1 µM.

`CCN(CC)Cc1cccc(-c2cc(Cl)c([S+](=O)([O-])N(C)c3c(C)nn(C)c3C)c(Cl)c2)c1` [DDD88641] was tested. Which “ED50 (μM) T. brucei” value did it give?
Its value is 0.31 µM.

With `Cc1nn(C)c(C)c1N[S+](=O)([O-])c1ccc(-c2cccc(CN(C)C)c2)cc1` [DDD88005, 3′-Dimethylaminomethyl-biphenyl-4-sulfonic acid (1,3,5-trimethyl-1H-pyrazol-4-yl)-amide] as the compound, how does the “ED50 (μM) T. brucei” value read?
Its value is 0.1 µM.

For `Cc1nn(C)c(C)c1N[S+](=O)([O-])c1ccc(CCCN2CCNCC2)cc1` [DDD88580], which “ED50 (μM) T. brucei” value is on record?
Its value is 1.13 µM.

For `Cc1nn(C)c(C)c1N[S+](=O)([O-])c1ccc(-c2ccnc(N3CCCCC3)c2)cc1` [DDD87749, 4-(3,4,5,6-Tetrahydro-2H-[1,2′]bipyridinyl-4′-yl)-N-(1,3,5-trimethyl-1H-pyrazol-4-yl)-benzenesulfonamide], which “ED50 (μM) T. brucei” value is on record?
Its value is 1.28 µM.

With `Cc1nn(C)c(C)c1N[S+](=O)([O-])c1c(Cl)cccc1Cl` [DDD71239] as the compound, how does the “ED50 (μM) T. brucei” value read?
Its value is 23.2 µM.

With `Cc1nn(C)c(C)c1N(C)[S+](=O)([O-])c1c(Cl)cc(CCCC2CCNCC2)cc1Cl` [DDD90022] as the compound, how does the “ED50 (μM) T. brucei” value read?
Its value is 0.002 µM.

For `CNCc1cccc(-c2ccc([S+](=O)([O-])Nc3c(CC(C)C)nn(C)c3C)cc2)c1` [DDD99748], which “ED50 (μM) T. brucei” value is on record?
The value was 0.036 µM.

How did the “ED50 (μM) T. brucei” value turn out when `Cc1nn(C)c(C)c1N[S+](=O)([O-])c1ccc(NC2CCNC2)nc1` (stereo not drawn) [DDD86296] was run?
The value was greater than 1 µM.

For `Cc1ncccc1N[S+](=O)([O-])c1ccc(-c2ccnc(N3CCNCC3)c2)cc1` [DDD87994, N-(2-Methyl-pyridin-3-yl)-4-(2-piperazin-1-yl-pyridin-4-yl)-benzenesulfonamide], which “ED50 (μM) T. brucei” value is on record?
Its value is 0.11 µM.

For `CCN(c1c(C)nn(C)c1C)[S+](=O)([O-])c1c(Cl)cc(Br)cc1Cl` [DDD85637], which “ED50 (μM) T. brucei” value is on record?
The value was 3.2 µM.

`Cc1nn(C)c(C)c1N[S+](=O)([O-])c1c(Cl)cc(-c2ccnc(NCCN(C)C)c2)cc1Cl` [DDD86309, 2,6-Dichloro-4-[2-(2-dimethylamino-ethylamino)-pyridin-4-yl]-N-(1,3,5-trimethyl-1H-pyrazol-4-yl)-benzenesulfonamide] was tested. Which “ED50 (μM) T. brucei” value did it give?
The value was greater than 1 µM.

For `CCN(c1c(C)nn(C)c1C)[S+](=O)([O-])c1c(Cl)cc(CCCN2CCN(C)CC2)cc1Cl` [DDD90154], which “ED50 (μM) T. brucei” value is on record?
Its value is 0.023 µM.

`Cc1nn(C)c(C)c1N[S+](=O)([O-])c1ccc(NCCN2CCCCC2)nc1` [DDD85635] was tested. Which “ED50 (μM) T. brucei” value did it give?
Its value is 48.1 µM.

`Cc1nn(C)c(C)c1N(C)[S+](=O)([O-])c1ccc(Br)cc1` [DDD87766, 4-Bromo-N-methyl-N-(1,3,5-trimethyl-1H-pyrazol-4-yl)-benzenesulfonamide] was tested. Which “ED50 (μM) T. brucei” value did it give?
Its value is greater than 1 µM.

For `Cc1nn(C)c(C)c1N[S+](=O)([O-])c1ccc(CCCC2CCNCC2)cc1` [DDD99758], which “ED50 (μM) T. brucei” value is on record?
Its value is 0.110 µM.

For `CCN(c1c(C)nn(C)c1C)[S+](=O)([O-])c1c(Cl)cc(-c2ccnc(N3CCNCC3)c2)cc1Cl` [DDD88646], which “ED50 (μM) T. brucei” value is on record?
The value was 0.002 µM.

Which “ED50 (μM) T. brucei” value does the source give for `Cc1nn(C)c(C)c1N[S+](=O)([O-])c1ccc(NCCN2CCN(c3ccccc3)CC2)nc1` [DDD86301] here?
The value was greater than 1 µM.

How did the “ED50 (μM) T. brucei” value turn out when `Cc1nn(C)c(C)c1N[S+](=O)([O-])c1ccc(CCCN2CCN(C)CC2)cc1` [DDD88191, 4-[3-(4-Methyl-piperazin-1-yl)-propyl]-N-(1,3,5-trimethyl-1H-pyrazol-4-yl)-benzenesulfonamide] was run?
Its value is 0.67 µM.

For `Cc1nn(C)c(C)c1N[S+](=O)([O-])c1ccc(-c2cccc(CN3CCOCC3)c2)cc1` [DDD86314, 3′-Morpholin-4-ylmethyl-biphenyl-4-sulfonic acid (1,3,5-trimethyl-1H-pyrazol-4-yl)-amide], which “ED50 (μM) T. brucei” value is on record?
The value was greater than 1 µM.

How did the “ED50 (μM) T. brucei” value turn out when `Cc1nn(C)c(C)c1N[S+](=O)([O-])c1c(Cl)cc(CCCN2CCN(C)CC2)cc1Cl` [DDD87769, 2,6-Dichloro-4-[3-(4-methyl-piperazin-1-yl)-propyl]-N-(1,3,5-trimethyl-1H-pyrazol-4-yl)-benzenesulfonamide] was run?
The value was 0.008 µM.

For `Cc1ccc(SCc2ccc([S+](=O)([O-])Nc3c(C)nn(C)c3C)cc2)cc1` [DDD85642], which “ED50 (μM) T. brucei” value is on record?
Its value is greater than 1 µM.

With `Cc1nn(C)c(C)c1N[S+](=O)([O-])c1ccc(-c2cccc(CNCc3ccccc3)c2)cc1` [DDD87765, 3′-(Benzylamino-methyl)-biphenyl-4-sulfonic acid (1,3,5-trimethyl-1H-pyrazol-4-yl)-amide] as the compound, how does the “ED50 (μM) T. brucei” value read?
The value was greater than 1 µM.

`Cc1nn(C)c(C)c1N[S+](=O)([O-])c1ccc(CCCC2CCN(C)CC2)cc1` [DDD88559] was tested. Which “ED50 (μM) T. brucei” value did it give?
The value was 0.038 µM.

How did the “ED50 (μM) T. brucei” value turn out when `Cc1nn(C)c(C)c1N[S+](=O)([O-])c1c(Cl)cc(-c2ccnc(Cl)c2)cc1Cl` [DDD86209, 2,6-Dichloro-4-(2-chloro-pyridin-4-yl)-N-(1,3,5-trimethyl-1H-pyrazol-4-yl)-benzenesulfonamide] was run?
The value was greater than 1 µM.

How did the “ED50 (μM) T. brucei” value turn out when `COc1cc(NC(C)=O)ccc1[S+](=O)([O-])Nc1c(C)nn(C)c1C` [DDD71590] was run?
The value was greater than 1 µM.

How did the “ED50 (μM) T. brucei” value turn out when `Cc1nn(C)c(C)c1N[S+](=O)([O-])c1c(Cl)cc(-c2ccnc(N3CCN(C)CC3)c2)cc1Cl` [DDD86211, 2,6-Dichloro-4-[2-(4-methyl-piperazin-1-yl)-pyridin-4-yl]-N-(1,3,5-trimethyl-1H-pyrazol-4-yl)-benzenesulfonamide] was run?
Its value is 0.19 µM.

For `Cc1c(N[S+](=O)([O-])c2ccc(-c3cccc(CN4CCCC4)c3)cc2)c(CC(C)C)nn1C` [DDD99739], which “ED50 (μM) T. brucei” value is on record?
Its value is 0.058 µM.

`Cc1nn(C)c(C)c1N(C)[S+](=O)([O-])c1ccc(CCCCCN(C)C)cc1` [DDD90145] was tested. Which “ED50 (μM) T. brucei” value did it give?
Its value is 1.00 µM.
